The source made the active and inactive calls. The rule behind the calls is not given here.
Key:
HT-29 [1] = assay: Anti-necroptic activity against human HT-29 cells assessed as cell viability pretreated with compound followed by TNF-alpha/Smac mimetic/Z-VAD-FMK stimulation for 16 hrs by Cell Titer Glo assay; type: functional, cell-based
[2] = Cytotoxicity against human HT-29 cells by Cell Titer Glo assay; type: toxicity, cell-based
HT-29 [3] = assay: Anti-necroptic activity against human HT-29 cells assessed as cell viability pretreated with compound followed by TNF-alpha/Smac mimetic/Z-VAD-FMK stimulation for 12 hrs by Cell Titer Glo assay; type: functional, cell-based; settings: dose 0.39-50 nM
HT-29 [4] = assay: Anti-necroptic activity against human HT-29 cells assessed as cell viability pretreated with compound followed by TNF-alpha/Cycloheximide/Z-VAD-FMK stimulation for 16 hrs by Cell Titer Glo assay; type: functional, cell-based; settings: dose 0.39-50 nM
L-292 = assay: Anti-necroptic activity against mouse […] cells assessed as cell viability pretreated with compound followed by TNF-alpha/Z-VAD-FMK stimulation for 12 hrs by Cell Titer Glo assay; type: functional, cell-based; settings: dose 0.078-10 µM
HT-29 [5] = assay: Anti-necroptic activity against human HT-29 cells assessed as cell viability upto 10 uM pretreated with compound followed by TNF-alpha/Smac mimetic stimulation for 24 hrs by Cell Titer Glo assay; type: functional, cell-based
HT-29 [6] = assay: Anti-necroptic activity against human HT-29 cells assessed as cell viability upto 10 uM pretreated with compound followed by TNF-alpha/Cycloheximide stimulation for 36 hrs by Cell Titer Glo assay; type: functional, cell-based
[7] = biological target: T1, Receptor-interacting serine/threonine-protein kinase 1 (Homo sapiens) (UniProt Q13546); assay: Inhibition of RIPK1 phosphorylation in human HT-29 cells at 10 nM preincubated for 6 hrs followed by TSZ stimulation by Western blot analysis relative to control; type: cell-based
T1 sequence (whole entry): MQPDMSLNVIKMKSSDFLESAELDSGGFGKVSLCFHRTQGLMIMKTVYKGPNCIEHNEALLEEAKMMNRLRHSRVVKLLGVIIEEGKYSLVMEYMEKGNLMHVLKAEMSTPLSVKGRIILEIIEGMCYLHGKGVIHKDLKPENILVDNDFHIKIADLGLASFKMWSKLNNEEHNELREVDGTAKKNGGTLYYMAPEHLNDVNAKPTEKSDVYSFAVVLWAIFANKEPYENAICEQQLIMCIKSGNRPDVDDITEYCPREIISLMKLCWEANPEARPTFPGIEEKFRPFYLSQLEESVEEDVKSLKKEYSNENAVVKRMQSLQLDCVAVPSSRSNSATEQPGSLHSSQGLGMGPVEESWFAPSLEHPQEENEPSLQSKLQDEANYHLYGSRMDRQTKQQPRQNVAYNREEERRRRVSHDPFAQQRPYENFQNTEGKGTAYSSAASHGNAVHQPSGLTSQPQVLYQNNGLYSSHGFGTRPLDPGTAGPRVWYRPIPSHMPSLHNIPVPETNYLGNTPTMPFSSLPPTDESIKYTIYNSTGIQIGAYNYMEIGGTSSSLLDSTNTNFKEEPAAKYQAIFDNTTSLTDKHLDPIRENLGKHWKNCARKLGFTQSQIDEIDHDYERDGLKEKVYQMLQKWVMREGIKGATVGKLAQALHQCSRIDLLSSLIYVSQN

[8] = biological target: T1, Receptor-interacting serine/threonine-protein kinase 1 (Homo sapiens); assay: Inhibition of RIPK1 in human HT-29 cells assessed as decrease in RIPK3 phosphorylation at 10 nM preincubated for 6 hrs followed by TSZ stimulation by Western blot analysis relative to control; type: cell-based
[9] = biological target: T1, Receptor-interacting serine/threonine-protein kinase 1 (Homo sapiens); assay: Inhibition of RIPK1 in human HT-29 cells assessed as decrease in MLKL phosphorylation at 10 nM preincubated for 6 hrs followed by TSZ stimulation by Western blot analysis relative to control; type: cell-based
[10] = biological target: T1, Receptor-interacting serine/threonine-protein kinase 1 (Homo sapiens); assay: Inhibition of RIPK1 phosphorylation in human HT-29 cells assessed as decrease in necrosomes development at 10 nM incubated for 6 hrs by Western blot analysis; type: cell-based
Mus musculus [11] = assay: Anti-necroptic activity in TNF-alpha/Z-VAD-FMK-induced SIRS C57BL/6J mouse model assessed as decrease in hypothermia at 2.5 to 10 mg/kg, po pre-administered via gavage for 1 hr followed by […] of Z-VAD-FMK stimulation for 15 mins and subsequent TNF-alpha stimulation for 45 mins and re-current […] of Z-VAD-FMK stimulation measured after 2 to 3 hrs post- TNF-alpha stimulation; type: functional, organism-based; settings: dose 2.5-10 mg/kg, time 240-300 min
Mus musculus [12] = assay: (§1) Anti-necroptic activity in TNF-alpha/Z-VAD-FMK-induced SIRS C57BL/6J mouse model assessed as survival rate at 2.5 mg/kg, po pre-administered via gavage for 1 hr followed by […] of Z-VAD-FMK stimulation for 15 mins and subsequent TNF-alpha stimulation for 45 mins and re-current […] of Z-VAD-FMK stimulation measured after 4 hrs post- TNF-alpha stimulation relative to control; type: functional; settings: 6 h, time 360 min
Mus musculus [13] = assay: as §1, with “5” for “2.5”; type: functional; settings: 6 h, time 360 min
Mus musculus [14] = assay: as §1, with “10” for “2.5”; type: functional; settings: 6 h, time 360 min
Mus musculus [15] = assay: (§2) Anti-necroptic activity in TNF-alpha/Z-VAD-FMK-induced SIRS C57BL/6J mouse model assessed as decrease in serum IL-1beta level at 2.5 to 10 mg/kg, po pre-administered via gavage for 1 hr followed by […] of Z-VAD-FMK stimulation for 15 mins and subsequent TNF-alpha stimulation for 45 mins and re-current […] of Z-VAD-FMK stimulation measured after 4 hrs post- TNF-alpha stimulation by ELISA; type: functional, organism-based; settings: dose 2.5-10 mg/kg, time 360.0 min
Mus musculus [16] = assay: as §2, with “IL-6” for “IL-1beta”; type: functional, organism-based; settings: dose 2.5-10 mg/kg, time 360.0 min
[17] = biological target: T1, Receptor-interacting serine/threonine-protein kinase 1 (Homo sapiens); assay: Inhibition of RIPK1 phosphorylation in human HT-29 cells preincubated for 6 hrs followed by TSZ stimulation by Western blot analysis; type: cell-based; settings: dose 1-10 nM
[18] = biological target: T1, Receptor-interacting serine/threonine-protein kinase 1 (Homo sapiens); assay: Inhibition of RIPK1 in human HT-29 cells assessed as decrease in RIPK3 phosphorylation preincubated for 6 hrs followed by TSZ stimulation by Western blot analysis; type: cell-based; settings: dose 1-10 nM
[19] = biological target: T1, Receptor-interacting serine/threonine-protein kinase 1 (Homo sapiens); assay: Inhibition of RIPK1 in human HT-29 cells assessed as decrease in MLKL phosphorylation preincubated for 6 hrs followed by TSZ stimulation by Western blot analysis relative to control; type: cell-based; settings: dose 1-10 nM
Mus musculus [20] = assay: Anti-necroptic activity in TNF-alpha/Z-VAD-FMK-induced SIRS C57BL/6J mouse model assessed as survival rate at 2.5 mg/kg, po pre-administered via gavage for 1 hr followed by […] of Z-VAD-FMK stimulation for 15 mins and subsequent TNF-alpha stimulation for 45 mins and re-current […] of Z-VAD-FMK stimulation and measured after 60 hrs relative to control; type: functional; settings: 62 h, time 3720 min

Row | SMILES | EC50 (HT-29 [1]) | CC50 [2] | also measured
1 | CN1C(=O)[C@@H](NC(=O)c2n[nH]c(Cc3ccccc3)n2)COc2ccc(-c3ccc(C#N)cc3)cc21 | 1.7 nM | > 100000 nM | Activity (HT-29 [3]): Dose-Dependent Effect; Activity (HT-29 [4]): Dose-Dependent Effect; Activity (L-292): Dose-Dependent Effect; Activity (HT-29 [5]): inactive; Activity (HT-29 [6]): inactive; inhibition [7]: 100%; inhibition [8]: 100%; inhibition [9]: 100%; inhibition [10]: Active; Activity (Mus musculus [11]): Active; survival at 2.5 mg/kg (Mus musculus [12]): 66%; survival at 5 mg/kg (Mus musculus [13]): 91%; survival at 10 mg/kg (Mus musculus [14]): 100%; Activity (Mus musculus [15]): Active; Activity (Mus musculus [16]): Active; inhibition [17]: Dose-Dependent Effect; inhibition [18]: Dose-Dependent Effect; inhibition [19]: Dose-Dependent Effect
2 | CN1C(=O)[C@@H](NC(=O)c2n[nH]c(Cc3ccccc3)n2)COc2ccc(-c3ccncc3)cc21 | 3.3 nM | > 100000 nM | –
3 | CN1C(=O)[C@@H](NC(=O)c2n[nH]c(Cc3ccccc3)n2)COc2ccc(-c3ccccc3F)cc21 | 7.6 nM | > 100000 nM | –
4 | CN1C(=O)[C@@H](NC(=O)c2n[nH]c(Cc3ccccc3)n2)COc2ccc(-c3ccc(Cl)cc3)cc21 | 12.5 nM | > 100000 nM | –
5 | CN1C(=O)[C@@H](NC(=O)c2n[nH]c(Cc3ccccc3)n2)COc2ccc(-c3cncnc3)cc21 | 5.8 nM | > 100000 nM | –
6 | Cc1cccc(C)c1-c1ccc2c(c1)N(C)C(=O)[C@@H](NC(=O)c1n[nH]c(Cc3ccccc3)n1)CO2 | > 100 nM | > 100000 nM | –
7 | CN1C(=O)[C@@H](NC(=O)c2n[nH]c(Cc3ccccc3)n2)COc2ccc(-c3cccc(F)c3)cc21 | 8.8 nM | > 100000 nM | –
8 | CN1C(=O)[C@@H](NC(=O)c2n[nH]c(Cc3ccccc3)n2)COc2ccc(-c3ccc(O)cc3)cc21 | 29.9 nM | > 100000 nM | –
9 | CN1C(=O)[C@@H](NC(=O)c2n[nH]c(Cc3ccccc3)n2)COc2ccc(-c3ccco3)cc21 | 3.8 nM | > 100000 nM | –
10 | Cc1ccccc1-c1ccc2c(c1)N(C)C(=O)[C@@H](NC(=O)c1n[nH]c(Cc3ccccc3)n1)CO2 | 82.7 nM | > 100000 nM | –
11 | CN1C(=O)[C@@H](NC(=O)c2n[nH]c(Cc3ccccc3)n2)COc2ccc(-c3ccccc3Cl)cc21 | 20.3 nM | > 100000 nM | –
12 | CN1C(=O)[C@@H](NC(=O)c2n[nH]c(Cc3ccccc3)n2)COc2ccc(-c3cccc(C#N)c3)cc21 | 8.3 nM | > 100000 nM | –
13 | CN1C(=O)[C@@H](NC(=O)c2n[nH]c(Cc3ccccc3)n2)COc2ccc(-c3ccccc3-c3ccccc3)cc21 | > 100 nM | > 100000 nM | –
14 | CN1C(=O)[C@@H](NC(=O)c2nnc(Cc3ccccc3)[nH]2)COc2ccccc21 [GSK2982772] | 2.9 nM | > 100000 nM | survival at 2.5 mg/kg (Mus musculus [20]): 50%
15 | CN1C(=O)[C@@H](NC(=O)c2n[nH]c(Cc3ccccc3)n2)COc2ccc(-c3ccccc3)cc21 | 8.3 nM | > 100000 nM | –
16 | COc1cccc(-c2ccc3c(c2)N(C)C(=O)[C@@H](NC(=O)c2n[nH]c(Cc4ccccc4)n2)CO3)c1 | 3 nM | > 100000 nM | –
17 | COc1ccc(-c2ccc3c(c2)N(C)C(=O)[C@@H](NC(=O)c2n[nH]c(Cc4ccccc4)n2)CO3)cc1 | 3.5 nM | > 100000 nM | –
18 | CN1C(=O)[C@@H](NC(=O)c2n[nH]c(Cc3ccccc3)n2)COc2ccc(-c3ccc(F)cc3)cc21 | 9.8 nM | > 100000 nM | –
19 | CN1C(=O)[C@@H](NC(=O)c2n[nH]c(Cc3ccccc3)n2)COc2ccc(-c3ccccc3C#N)cc21 | 3 nM | > 100000 nM | –
20 | CN1C(=O)[C@@H](NC(=O)c2n[nH]c(Cc3ccccc3)n2)COc2ccc(-c3ccccc3O)cc21 | 60 nM | > 100000 nM | –
21 | CN1C(=O)[C@@H](NC(=O)c2n[nH]c(Cc3ccccc3)n2)COc2ccc(-c3ccc(-c4ccccc4)cc3)cc21 | 32.9 nM | > 100000 nM | –
22 | CN1C(=O)[C@@H](NC(=O)c2n[nH]c(Cc3ccccc3)n2)COc2ccc(-c3cccc(-c4ccccc4)c3)cc21 | 27.3 nM | > 100000 nM | –
23 | Cc1ccc(-c2ccc3c(c2)N(C)C(=O)[C@@H](NC(=O)c2n[nH]c(Cc4ccccc4)n2)CO3)cc1 | 10.9 nM | > 100000 nM | –
24 | CN1C(=O)[C@@H](NC(=O)c2n[nH]c(Cc3ccccc3)n2)COc2ccc(-c3ccoc3)cc21 | 3.4 nM | > 100000 nM | –
25 | CN1C(=O)[C@@H](NC(=O)c2n[nH]c(Cc3ccccc3)n2)COc2ccc(-c3cccc(Cl)c3)cc21 | 56.8 nM | > 100000 nM | –
26 | CN1C(=O)[C@@H](NC(=O)c2n[nH]c(Cc3ccccc3)n2)COc2ccc(-c3cccc(O)c3)cc21 | 11.7 nM | > 100000 nM | –
27 | COc1ccccc1-c1ccc2c(c1)N(C)C(=O)[C@@H](NC(=O)c1n[nH]c(Cc3ccccc3)n1)CO2 | 10 nM | > 100000 nM | –
28 | Cc1cccc(-c2ccc3c(c2)N(C)C(=O)[C@@H](NC(=O)c2n[nH]c(Cc4ccccc4)n2)CO3)c1 | 14.1 nM | > 100000 nM | –

Source: ChEMBL document CHEMBL5523692, “Discovery of novel biaryl benzoxazepinones as dual-mode receptor-interacting protein kinase-1 (RIPK1) inhibitors” (Bioorg Med Chem, 2024)
